Structures can show the parent of a compound that is named as a salt.

The results in this text go back to patent US12037336B2, “Compounds with activity as inhibitors of the epithelial sodium channel (ENaC)” (Enterprise Therapeutics Limited, priority 2018, dated 2024).

The assay deals with T1, ENaC (Homo sapiens, UniProt P37088+P51168+P51170).
T1 construct: host or cells: primary human bronchial epithelial cells (HBECs), differentiated at an air-liquid interface
T1 sequence (P37088 1-669): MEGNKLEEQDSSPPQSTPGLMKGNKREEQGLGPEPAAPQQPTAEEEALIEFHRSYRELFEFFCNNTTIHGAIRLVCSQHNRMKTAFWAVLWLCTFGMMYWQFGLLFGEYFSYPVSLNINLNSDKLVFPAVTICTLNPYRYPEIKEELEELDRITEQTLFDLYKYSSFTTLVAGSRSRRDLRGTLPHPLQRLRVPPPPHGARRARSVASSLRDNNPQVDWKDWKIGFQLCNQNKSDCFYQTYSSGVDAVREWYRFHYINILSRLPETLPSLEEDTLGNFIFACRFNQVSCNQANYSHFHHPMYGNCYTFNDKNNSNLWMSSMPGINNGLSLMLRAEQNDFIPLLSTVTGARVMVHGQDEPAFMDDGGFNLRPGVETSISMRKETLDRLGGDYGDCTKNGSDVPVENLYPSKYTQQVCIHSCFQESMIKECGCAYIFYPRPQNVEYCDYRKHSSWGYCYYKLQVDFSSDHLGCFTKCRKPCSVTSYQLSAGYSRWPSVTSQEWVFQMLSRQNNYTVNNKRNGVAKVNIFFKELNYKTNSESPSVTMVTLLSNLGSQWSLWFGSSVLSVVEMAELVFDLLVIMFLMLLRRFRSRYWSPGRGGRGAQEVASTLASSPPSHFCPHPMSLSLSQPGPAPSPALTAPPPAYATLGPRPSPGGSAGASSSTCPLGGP
T1 sequence (P51168 1-640): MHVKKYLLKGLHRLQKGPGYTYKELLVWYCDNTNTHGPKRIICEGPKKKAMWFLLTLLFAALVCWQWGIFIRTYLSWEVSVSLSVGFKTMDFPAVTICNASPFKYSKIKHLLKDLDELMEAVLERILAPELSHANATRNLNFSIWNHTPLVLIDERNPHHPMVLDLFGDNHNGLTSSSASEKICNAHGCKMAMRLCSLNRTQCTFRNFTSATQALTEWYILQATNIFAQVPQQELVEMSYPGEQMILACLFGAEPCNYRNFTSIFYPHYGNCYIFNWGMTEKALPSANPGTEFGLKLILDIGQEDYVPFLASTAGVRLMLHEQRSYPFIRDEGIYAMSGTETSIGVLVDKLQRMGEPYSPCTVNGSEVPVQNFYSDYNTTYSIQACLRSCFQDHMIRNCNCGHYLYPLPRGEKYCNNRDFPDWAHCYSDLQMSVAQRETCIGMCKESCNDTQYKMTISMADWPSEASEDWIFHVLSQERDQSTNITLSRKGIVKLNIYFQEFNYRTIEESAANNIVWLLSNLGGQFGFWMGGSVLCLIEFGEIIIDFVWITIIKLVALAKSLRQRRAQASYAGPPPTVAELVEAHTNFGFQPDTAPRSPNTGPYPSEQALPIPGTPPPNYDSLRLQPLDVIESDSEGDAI
T1 sequence (P51170 1-649): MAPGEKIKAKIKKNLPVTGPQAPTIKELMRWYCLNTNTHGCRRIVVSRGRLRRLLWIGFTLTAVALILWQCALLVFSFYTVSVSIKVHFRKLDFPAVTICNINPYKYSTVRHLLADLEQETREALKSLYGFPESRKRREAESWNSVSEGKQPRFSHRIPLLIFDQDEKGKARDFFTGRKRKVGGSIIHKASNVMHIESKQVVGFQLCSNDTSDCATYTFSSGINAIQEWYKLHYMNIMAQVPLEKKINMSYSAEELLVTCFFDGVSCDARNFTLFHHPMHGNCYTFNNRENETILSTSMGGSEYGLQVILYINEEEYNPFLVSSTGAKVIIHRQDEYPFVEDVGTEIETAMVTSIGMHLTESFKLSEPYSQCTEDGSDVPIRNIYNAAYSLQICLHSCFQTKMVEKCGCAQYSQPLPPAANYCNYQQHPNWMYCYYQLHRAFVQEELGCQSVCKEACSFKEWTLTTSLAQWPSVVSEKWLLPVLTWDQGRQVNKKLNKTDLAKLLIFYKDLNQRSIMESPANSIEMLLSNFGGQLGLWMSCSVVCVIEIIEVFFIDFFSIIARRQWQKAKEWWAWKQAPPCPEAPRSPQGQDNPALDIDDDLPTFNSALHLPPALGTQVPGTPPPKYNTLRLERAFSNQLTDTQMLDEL
Briefly: Short circuit current assay to determine ENaC blocker potency in human bronchial epithelial cells. The assay is classed as cell-based. The settings on record: 50% inhibition of the total amiloride-sensitive short-circuit current (ISC) in human bronchial epithelial cells (HBECs) at air-liquid interface; apical addition; read-out: Averages · ENaC IC50 (nM) Avg. Here is the method:
Example 6 Short circuit current assay to determine ENaC blocker potency in human bronchial epithelial cells
Cell culture Human bronchial epithelial cells (HBECs) (Lonza, UK) were cultured using a modification of the method described by Coote et al, (2008). Cells were seeded into plastic T-75 flasks and grown in Bronchial Epithelial Cell Growth Medium (BEGM) (Lonza, UK) supplemented with bovine pituitary extract (52 ng/mL), hydrocortisone (0.5 μg/mL), human recombinant Epidermal Growth Factor (0.5 ng/mL), epinephrine (0.5 ng/mL), transferrin (10 ng/mL), insulin (5 ng/mL), retinoic acid (0.1 ng/mL), triiodothyronine (6.5 ng/mL), gentamycin (50 μg/mL) and amphotericin-B (50 ng/mL). Medium was changed every 48 hours until cells were 90% confluent. Cells were then passaged and seeded (8.25×10^5 cells/insert) onto polycarbonate Snapwell™ inserts (Costar, UK) in differentiation media containing 50% DMEM in BGEM with the same supplements as above but without triiodothyronine and a final retinoic acid concentration of 50 nM (all-trans retinoic acid; Sigma-Aldrich, UK). Cells were maintained submerged for the first 7 days in culture after which time they were exposed to an apical air interface for the remainder of the culture period. From the first day of establishment of an ALI, HBEC were fed with a DMEM:HAMS F-12 (1:1) media containing 2% Ultroser G (Pall BioSepra, France) with gentamycin (50 μg/mL) and amphotericin B (50 ng/mL). Cells were used for short-circuit current assay between days 14-21 after the establishment of the ALI. At all stages of culture, cells were maintained at 37° C. in 5% CO2 in an air incubator.
Short-Circuit Current (ISC) Measurements
Snapwell inserts were mounted in Costar Vertical Diffusion Chambers (Costar, UK) and were bathed with continuously gassed Ringer solution (5% CO2 in O2; pH 7.4) maintained at 37° C. containing (in mM): 120 NaCl, 25 NaHCO3, 3.3 KH2PO4, 0.8 K2HPO4, 1.2 CaCl2, 1.2 MgCl2 and 10 glucose. The solution osmolarity was always between 280-300 mOsm/kg H2O for all physiological salt solutions used. Cells were voltage clamped to 0 mV (model EVC4000, WPI). Transepithelial resistance (RT) was measured by applying a 2 mV pulse at 30 s intervals and calculating RT by Ohm's law. Data were recorded using a PowerLab workstation (ADInstruments, UK).
ENaC blocker compounds were added to the apical chamber from a 1000-fold stock solution (prepared in DMSO) to achieve a cumulative concentration response in terms of the inhibition of the basal ISC. At the completion of the concentration response, a supra-maximal concentration of amiloride (10 μM) was added. The concentration of test compound that induced a 50% inhibition of the total amiloride-sensitive ISC (IC50) was calculated using GraphPad Prism v6.05. […]
Turning to `CCn1c(CNC(=O)c2nc3c(C)n[nH]c3nc2N)[n+](CC)c2ccc(OC)cc21` [Example 1, 2-[({6-amino-3-methyl-1H-pyrazolo[3,4-b]pyrazin-5-yl}formamido)methyl]-1,3-diethyl-6-methoxy-1H-1,3-benzodiazol-3-ium trifluoroacetate], the IC50 – broadly, the point on the concentration scale where inhibition reaches its midpoint – came out at 2 nM.

With `CCn1c(CNC(=O)c2nc3c(C)n[nH]c3nc2N)[n+](CC)c2ccc(C(=O)O)cc21` [Example 2, 2-[({6-amino-3-methyl-1H-pyrazolo[3,4-b]pyrazin-5-yl}formamido)methyl]-6-carboxy-1,3-diethyl-1H-1,3-benzodiazol-3-ium formate], the half-maximal inhibitory concentration (IC50) is 91.5 nM.

With `CCn1c(CNC(=O)c2nc3cn[nH]c3nc2N)[n+](CC)c2ccc(C(=O)O)cc21` [Example 3], the half-maximal inhibitory concentration (IC50) came to 106 nM.

Consider `CCn1c(CNC(=O)c2nc3cn[nH]c3nc2N)[n+](CC)c2ccc(C(=O)N3CCC(N(C[C@H](O)[C@@H](O)[C@H](O)[C@H](O)CO)C[C@H](O)[C@@H](O)[C@H](O)[C@H](O)CO)CC3)cc21` [Example 4, 2-[({6-amino-1H-pyrazolo[3,4-b]pyrazin-5-yl}formamido)methyl]-6-(4-{bis[(2S,3R,4R,5R)-2,3,4,5,6-pentahydroxyhexyl]amino}piperidine-1-carbonyl)-1,3-diethyl-1H-1,3-benzodiazol-3-ium trifluoroacetic acid trifluoroacetate], for which the concentration for half-maximal inhibition (IC50) worked out at 47 nM.
